TGI data for 21 compounds are collected here from PubChem BioAssay (NCI).

SMILES strings stand for the structures.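 1) Cells in 96-well plates. 2) Compound, 48 h, 5 concentrations. 3) Linear interpolation between surrounding doses. 4) Unreached endpoint = highest concentration. The concentration for full growth arrest is given as TGI.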

Some test systems named below: HT29 colon; DMS 273 small cell lung; K-562 leukemia; OVCAR-8 ovarian; A498 renal; EKVX NSCLC; DMS 114 small cell lung; LOX IMVI melanoma; UACC-62 melanoma; XF 498 CNS; MDA-N; MDA-MB-231 breast.
Common to all, as to assay: NCI anticancer screen, dose series, 48 h

Consider `COc1ccccc1C1C(C(=O)O)=C(CO)Oc2cc3c(cc21)OCO3` (stereo not given), for which the TGI in the test on HT29 colon, in the test on DMS 273 small cell lung, in the test with K-562 leukemia, in the test on OVCAR-8 ovarian, in the test with A498 renal and in the test with EKVX NSCLC was > 100 µM each time. For the same compound, the TGI with DMS 114 small cell lung, in the test with LOX IMVI melanoma and in the test with UACC-62 melanoma was > 100 µM throughout.

As to `C[C@]12C=CC(=O)C=C1CC[C@H]1[C@@H]3C[C@@H](O)[C@](O)(C(=O)CO)[C@@]3(C)C[C@H](O)[C@@]12F`, the TGI in the test on XF 498 CNS, with HT29 colon, in the test on DMS 273 small cell lung, in the test on K-562 leukemia, in the test with OVCAR-8 ovarian and in the test on A498 renal was > 100 µM in each case. The TGI with EKVX NSCLC, with DMS 114 small cell lung, in the test on LOX IMVI melanoma and in the test on UACC-62 melanoma was > 100 µM throughout.

As to `CC1CC=CC(O)C1` (stereo not given), the TGI in the test on XF 498 CNS, in the test on HT29 colon, in the test with DMS 273 small cell lung, in the test with K-562 leukemia, in the test with OVCAR-8 ovarian and in the test on A498 renal was > 100 µM in each case. Also, the TGI with EKVX NSCLC, with DMS 114 small cell lung, with LOX IMVI melanoma and in the test with UACC-62 melanoma was > 100 µM in each case.

As for `CNC(=S)N(C)C(=S)Nn1c(=O)c(C)nn(C)c1=S`, the TGI with HT29 colon, in the test on DMS 273 small cell lung, with K-562 leukemia, with OVCAR-8 ovarian, in the test on A498 renal and in the test with EKVX NSCLC was > 100 µM in each case. Further, the TGI in the test on DMS 114 small cell lung, in the test on LOX IMVI melanoma and in the test with UACC-62 melanoma was > 100 µM throughout.

With `COc1cc(C[S+]2CCCC2)c(SC)cc1C[S+]1CCCC1`, the TGI in the test with XF 498 CNS, in the test with HT29 colon, in the test on K-562 leukemia, in the test with OVCAR-8 ovarian, in the test on A498 renal and with EKVX NSCLC was > 100 µM each time. For the same compound, the TGI in the test on DMS 114 small cell lung, in the test on LOX IMVI melanoma and in the test on UACC-62 melanoma was > 100 µM throughout.

`CC(=O)OC1CCC2(C)C3CCC4(C)C(c5ccc(=O)oc5)CC5OC54C3CCC2(O)C1` (stereo not given): the TGI in the test with XF 498 CNS was 6.97 µM; in the test with HT29 colon it was 16.1 µM; in the test on DMS 273 small cell lung, 6 µM; with K-562 leukemia it was 24 µM; in the test on OVCAR-8 ovarian, 7.73 µM; in the test with A498 renal, 15.1 µM. The TGI in the test on EKVX NSCLC was found to be 3.64 µM; in the test with DMS 114 small cell lung, 0.69 µM; with LOX IMVI melanoma it was 16.5 µM; in the test with UACC-62 melanoma, 6.95 µM.

As for `O=C(OC(=O)n1ccc2ccccc21)n1ccc2ccccc21`, the TGI with XF 498 CNS, in the test with HT29 colon, in the test on DMS 273 small cell lung, in the test with K-562 leukemia, with OVCAR-8 ovarian and in the test on A498 renal was > 100 µM in each case. Besides, the TGI with EKVX NSCLC, in the test with DMS 114 small cell lung, in the test on LOX IMVI melanoma and with UACC-62 melanoma was > 100 µM throughout.

Take `COc1cc(/C=C2\CCC(C)C3C2=NN(C(C)=O)C3c2cc(OC)c(OC)c(OC)c2)cc(OC)c1OC` (stereo not given): the TGI with HT29 colon, in the test on K-562 leukemia, with MDA-N, with OVCAR-8 ovarian, in the test on A498 renal and in the test with EKVX NSCLC was > 100 µM in each case. Also, the TGI in the test on LOX IMVI melanoma, in the test on UACC-62 melanoma and with MDA-MB-231 breast was > 100 µM throughout.

As to `COc1ccc(C(C)NNC(=O)c2ccncc2)c(OC)c1` (stereo not given), the TGI in the test on HT29 colon, with K-562 leukemia, in the test on MDA-N, with OVCAR-8 ovarian, with A498 renal and with EKVX NSCLC was > 100 µM throughout. The TGI in the test on LOX IMVI melanoma, with UACC-62 melanoma and with MDA-MB-231 breast was > 100 µM in each case.

For `C[C@]12CC[C@H](O)CC1=CC[C@@H]1[C@@H]2CC[C@]2(C)C(=O)[C@@H](N3CCOCC3)C[C@@H]12`, the TGI in the test with HT29 colon, with K-562 leukemia, in the test on MDA-N, in the test on OVCAR-8 ovarian, in the test on A498 renal and with EKVX NSCLC was > 100 µM in each case. In addition, the TGI in the test on LOX IMVI melanoma, with UACC-62 melanoma and in the test on MDA-MB-231 breast was > 100 µM in each case.

On to `O=c1[nH]c(-c2ccc3ccccc3c2)nc2ccccc12`, for which the TGI was > 100 µM with HT29 colon; > 100 µM in the test with K-562 leukemia; > 100 µM with MDA-N; 54.4 µM with OVCAR-8 ovarian; > 100 µM in the test on A498 renal; > 100 µM with EKVX NSCLC. Besides, the TGI with LOX IMVI melanoma, in the test with UACC-62 melanoma and with MDA-MB-231 breast was > 100 µM throughout.

Turning to `O=[N+]([O-])c1cc2oc(COc3ccccc3)nc2cc1Cl`, the TGI in the test on HT29 colon is > 100 µM; with K-562 leukemia it was > 100 µM; with MDA-N, 69.6 µM; with OVCAR-8 ovarian, > 100 µM; with A498 renal, 53 µM; in the test with EKVX NSCLC, 73.6 µM. In addition, the figures for the TGI in the test with LOX IMVI melanoma, in the test on UACC-62 melanoma and in the test with MDA-MB-231 breast were 35 µM, 41.4 µM and 69.4 µM, respectively.

On to `C=C1C[C@@H]2O[C@H]3[C@H]4[C@@H](C[C@@H](C)[C@@H](OC(C)=O)[C@H]42)[C@@H](C)CO[C@@]3(C)[C@H](OC(C)=O)C[C@H]1O`, for which the TGI was > 100 µM in the test with HT29 colon; 63.7 µM in the test on K-562 leukemia; > 100 µM with MDA-N; > 100 µM in the test with OVCAR-8 ovarian; > 100 µM with A498 renal; > 100 µM in the test on EKVX NSCLC. In addition, the TGI with LOX IMVI melanoma is 38.7 µM; in the test with UACC-62 melanoma, > 100 µM; in the test with MDA-MB-231 breast, > 100 µM.

In the case of `O=NN(CCCl)C(=O)NC1CCSc2ccccc21` (stereo not given), the TGI with XF 498 CNS, with HT29 colon, with DMS 273 small cell lung, in the test on K-562 leukemia, in the test on OVCAR-8 ovarian and in the test on A498 renal was > 100 µM each time. In addition, the TGI is 94.1 µM in the test on EKVX NSCLC, > 100 µM with DMS 114 small cell lung, > 100 µM with LOX IMVI melanoma and > 100 µM in the test with UACC-62 melanoma.

Take `CNc1ccc(OC)cc1S(=O)(=O)c1ccccc1[N+](=O)[O-]`: the TGI in the test with HT29 colon, in the test with K-562 leukemia, in the test with MDA-N, with OVCAR-8 ovarian, in the test with A498 renal and in the test on EKVX NSCLC was > 100 µM throughout. Also, the TGI in the test on LOX IMVI melanoma, in the test on UACC-62 melanoma and with MDA-MB-231 breast was > 100 µM in each case.

With `COc1ccc(CC2c3cc(Oc4cc(CC5c6cc(OC)c(OC)cc6CCN5C)ccc4O)c(OC)cc3CCN2C)cc1` (stereo not given), the TGI was determined as 8.15 µM in the test on HT29 colon; 5.28 µM with K-562 leukemia; 13.7 µM in the test on MDA-N; 13.4 µM in the test with OVCAR-8 ovarian; 14.8 µM in the test on A498 renal; 15.9 µM in the test with EKVX NSCLC. The values for the TGI with LOX IMVI melanoma, with UACC-62 melanoma and in the test with MDA-MB-231 breast were 10.7 µM, 15.6 µM and 14.8 µM, respectively.

For `COc1cc(C2c3cc4c(cc3OC(N3CCCC3)C2C)OCO4)cc(OC)c1O` (stereo not given), the TGI is > 87.7 µM with HT29 colon; > 95.7 µM in the test with K-562 leukemia; 6.17 µM with MDA-N; > 100 µM in the test on OVCAR-8 ovarian; 56.9 µM with A498 renal; > 80.7 µM in the test on EKVX NSCLC. Moreover, the TGI with LOX IMVI melanoma is > 100 µM; with UACC-62 melanoma it was > 61.6 µM; in the test with MDA-MB-231 breast, > 93.3 µM.

Take `NC(N)=NCCN=C(N)N`: the TGI with HT29 colon, in the test on K-562 leukemia, in the test with MDA-N, in the test on OVCAR-8 ovarian, in the test on A498 renal and in the test with EKVX NSCLC was > 100 µM throughout. In addition, the TGI in the test with LOX IMVI melanoma, in the test on UACC-62 melanoma and in the test on MDA-MB-231 breast was > 100 µM in each case.

Consider `Cc1ccc(S(=O)(=O)Oc2cc(-c3ccccc3)nc3ccccc23)cc1`, for which the TGI in the test with XF 498 CNS is 24.3 µM; in the test with HT29 colon it was 7.54 µM; with DMS 273 small cell lung it was > 28 µM; in the test on K-562 leukemia, 34.8 µM; in the test on OVCAR-8 ovarian, > 77.6 µM; in the test with A498 renal it was 9.62 µM. For the same compound, the TGI was > 100 µM in the test on EKVX NSCLC, 1.24 µM in the test on DMS 114 small cell lung, > 78.5 µM in the test with LOX IMVI melanoma and 20.7 µM in the test with UACC-62 melanoma.

As for `CC(=O)OCCn1cnc2nc(Nc3ccccc3)nc(Cl)c21`, the TGI in the test on HT29 colon, with K-562 leukemia, in the test with MDA-N, in the test with OVCAR-8 ovarian, in the test on A498 renal and in the test with EKVX NSCLC was > 100 µM each time. The TGI in the test with LOX IMVI melanoma, with UACC-62 melanoma and in the test on MDA-MB-231 breast was > 100 µM each time.

Consider `CC(=O)Nc1cc(C(=O)Nc2cc(C(=O)N3CC(CCl)c4c3cc(N)c3ccccc43)nn2C)nn1C` (stereo not given), for which the TGI in the test on HT29 colon was 1.21 µM; in the test on K-562 leukemia, 0.823 µM; with MDA-N, 0.389 µM; with OVCAR-8 ovarian, 0.308 µM; in the test on A498 renal it was < 0.0197 µM; in the test with EKVX NSCLC, 1.15 µM. The TGI in the test with LOX IMVI melanoma was 1.07 µM; in the test on UACC-62 melanoma, 0.0631 µM; in the test with MDA-MB-231 breast it was 0.76 µM.
